Experimental findings from publication PMC6664820, “Novel natural and synthetic inhibitors of solute carriers SGLT1 and SGLT2” (Pharmacology Research & Perspectives, 2019) are described below.

Where a name gives a salt, the structure may show the parent alone. Read-outs that look alike come from different tables or passages of the source.

The target of one series is T1, SGLT1 (Homo sapiens, UniProt P13866).
T1 sequence (P13866 1-664): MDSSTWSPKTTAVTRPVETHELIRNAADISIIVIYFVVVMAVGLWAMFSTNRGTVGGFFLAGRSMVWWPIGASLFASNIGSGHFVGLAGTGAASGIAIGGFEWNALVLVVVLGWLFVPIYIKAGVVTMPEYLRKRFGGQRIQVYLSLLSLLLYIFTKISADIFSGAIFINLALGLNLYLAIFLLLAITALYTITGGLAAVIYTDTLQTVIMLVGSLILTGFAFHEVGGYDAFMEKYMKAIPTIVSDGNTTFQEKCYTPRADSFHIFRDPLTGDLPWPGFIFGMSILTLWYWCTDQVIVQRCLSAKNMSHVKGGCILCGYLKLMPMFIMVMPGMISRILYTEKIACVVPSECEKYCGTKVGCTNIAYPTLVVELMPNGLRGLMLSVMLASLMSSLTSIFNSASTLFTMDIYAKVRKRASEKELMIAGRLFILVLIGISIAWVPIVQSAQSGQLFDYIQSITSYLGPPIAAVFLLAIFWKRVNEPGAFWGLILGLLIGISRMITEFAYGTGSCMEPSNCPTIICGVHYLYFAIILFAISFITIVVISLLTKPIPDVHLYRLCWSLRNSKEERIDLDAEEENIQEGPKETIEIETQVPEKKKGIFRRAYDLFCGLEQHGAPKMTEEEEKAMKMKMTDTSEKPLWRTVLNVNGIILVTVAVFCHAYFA
As to the kind of experiment: SGLT1 inhibition assay for validation of screening hits and similar compounds (1‐NBD‐glucose uptake, CHO‐hSGLT1 cells). The class given is cell-based. More on the design: activity: dose or concentration left out as unconfirmed. The note with it: for remaining activity at 5 µM / remaining activity at 50 µM: 0.5 h, concentration not given, read-out: NORMALIZED SGLT1 ACTIVITY (%); for remaining activity at 5 µM / remaining activity at 50 µM / activity: mean; for activity: compound, normalized 1-NBD-glucose uptake, CHO-hSGLT1 cells.

Another series concerns CHO‐hSGLT1/2 cells. In words: Cytotoxicity assay (ToxiLight, adenylate kinase leakage into CHO‐SGLT1/2 inhibition assay media).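 For all read-outs here: bioluminescent read-out of adenylate kinase released from lysed cells into the medium, given relative to DMSO vehicle control defined as 0%, higher meaning more cytolysis.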 More on the design: CYTOTOXICITY / CY[…], mean / CYTOTOXICITY (% of vehicle control) Mean / CYTOTOXICITY, mean / CY[…] (% of vehicle control) Mean: dose or concentration left out as unconfirmed. The note with it: mean; for CY[…] 50 mM: at 50 mM (so in the source).

The next series deals with T2, hSGLT2 (Homo sapiens, UniProt P31639).
T2 sequence (P31639 1-672): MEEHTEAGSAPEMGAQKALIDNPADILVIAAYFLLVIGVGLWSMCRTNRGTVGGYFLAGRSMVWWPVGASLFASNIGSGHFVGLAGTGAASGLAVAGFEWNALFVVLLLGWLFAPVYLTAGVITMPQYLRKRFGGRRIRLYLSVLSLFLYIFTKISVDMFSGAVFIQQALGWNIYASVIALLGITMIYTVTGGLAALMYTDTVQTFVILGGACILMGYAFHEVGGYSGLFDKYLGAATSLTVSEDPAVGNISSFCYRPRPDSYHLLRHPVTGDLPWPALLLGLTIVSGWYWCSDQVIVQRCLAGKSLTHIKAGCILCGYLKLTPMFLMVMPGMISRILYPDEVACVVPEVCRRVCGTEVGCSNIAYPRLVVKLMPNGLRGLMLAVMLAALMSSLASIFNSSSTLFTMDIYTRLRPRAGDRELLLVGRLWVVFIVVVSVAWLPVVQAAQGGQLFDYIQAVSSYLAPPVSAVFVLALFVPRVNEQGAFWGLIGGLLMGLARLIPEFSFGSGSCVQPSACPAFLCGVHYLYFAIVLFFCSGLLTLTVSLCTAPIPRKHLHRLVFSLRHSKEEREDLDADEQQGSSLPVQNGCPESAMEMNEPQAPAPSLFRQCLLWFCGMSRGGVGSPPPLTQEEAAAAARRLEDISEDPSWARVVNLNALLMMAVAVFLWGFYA
As to the kind of experiment: SGLT2 inhibition assay for validation of screening hits and similar compounds (1‐NBD‐glucose uptake, CHO‐hSGLT2 cells). The class given is cell-based. More on the design: activity: dose or concentration left out as unconfirmed. The note with it: for remaining activity at 5 µM / remaining activity at 50 µM: 0.5 h, concentration not given, read-out: NORMALIZED SGLT2 ACTIVITY (%); for remaining activity at 5 µM / remaining activity at 50 µM / activity: mean; for activity: compound, normalized 1-NBD-glucose uptake, CHO-hSGLT2 cells.

The mark [1] stands for this setting: mean inhibition with 50 μmol/L inhibitor.
The mark [2] stands for this setting: ratio of normalized SGLT2 to SGLT1 activity at 5 uM.

As to `C=C[C@@]1(C)CC(=O)[C@]2(O)[C@@]3(C)[C@@H](O)CCC(C)(C)[C@@H]3[C@H](O)[C@H](OC(C)=O)[C@@]2(C)O1` [Forskolin], at SGLT1, the remaining activity at 5 µM came to 89% and the remaining activity at 50 µM came to 79%. The “CY[…] 50 mM” value with CHO‐hSGLT1/2 cells was 12. Further, at hSGLT2, the remaining activity at 5 µM was determined as 103% and the remaining activity at 50 µM was 95%.

With `C[C@@H]1O[C@@H](O[C@H]2[C@H](O[C@H]3CC[C@@]4(C)[C@@H](CC[C@]5(C)[C@@H]4CC=C4[C@@H]6CC(C)(C)CC[C@]6(C(=O)O)CC[C@]45C)[C@]3(C)CO)OC[C@H](O)[C@@H]2O)[C@H](O)[C@H](O[C@@H]2O[C@H](CO)[C@@H](O)[C@H](O)[C@H]2O)[C@H]1O` [Kalopanaxsaponin H], on SGLT1, the remaining activity at 5 µM came out at 104% and the remaining activity at 50 µM worked out at 99%. The compound also had a CYTOTOXICITY in the series on CHO‐hSGLT1/2 cells of -33. In addition, on hSGLT2, the remaining activity at 5 µM turned out to be 117% and the remaining activity at 50 µM was 110%.

In the case of `C=C(C)C(CC=C(C)C)Cc1c(O)cc2c(c1O)C(=O)CC(c1ccc(O)cc1O)O2` (centres unmarked) [Kushenol F], the activity at SGLT1 was determined as 109%. Besides, the “CYTOTOXICITY (% of vehicle control) Mean” value in the series with CHO‐hSGLT1/2 cells is 15 % of vehicle control. Further, at hSGLT2, the “SGLT2/SGLT1 ACTIVITY RATIO 5 uM Mean” value worked out at 1.1 and the “SGLT2/SGLT1 ACTIVITY RATIO 50 mM Mean” value turned out to be 1.1.

As to `CC1(C)Oc2ccc3ccc(=O)oc3c2CC1O` (centres unmarked) [Lomatin], at SGLT1 (setting [1]), the SGLT1 inhibition result is “no SGLT inhibition”. Further, in the series on CHO‐hSGLT1/2 cells, the “CYTOTOXICITY (% of vehicle control) Mean” value was -26 % of vehicle control. The SGLT2 inhibition entry on hSGLT2 (setting [1]) was “no SGLT inhibition”. Further, the “SGLT2/SGLT1 ACTIVITY RATIO 5 uM Mean” value at hSGLT2 (setting [2]) is on record as 1.0.

Consider `Oc1cc(O)cc(/C=C/c2ccc(O)cc2O)c1` [Oxyresveratrol], for which, on SGLT1, the remaining activity at 5 µM came to 105% and the remaining activity at 50 µM was 123%. The compound also gave a CYTOTOXICITY in the series with CHO‐hSGLT1/2 cells of -89. Further, at hSGLT2, the remaining activity at 5 µM worked out at 109% and the remaining activity at 50 µM is 115%.

On to `C1CCC(C(CC2CCCCN2)C2CCCCC2)CC1` (centres unmarked) [Perhexiline maleate salt], for which, on SGLT1, the remaining activity at 5 µM was 98% and the remaining activity at 50 µM was determined as 49%. Moreover, the “CY[…] 50 mM” value in the series on CHO‐hSGLT1/2 cells amounted to 0.684. On hSGLT2, the remaining activity at 5 µM amounted to 88% and the remaining activity at 50 µM was 38%.

Turning to `Oc1cc(O)cc(/C=C/c2ccc(O)c(O)c2)c1` [Piceatannol], the remaining activity at 5 µM on SGLT1 is 107%; on hSGLT2, 101%. The remaining activity at 50 µM worked out at 101% at SGLT1 and 105% on hSGLT2. The CYTOTOXICITY in the series with CHO‐hSGLT1/2 cells is listed as -87.

For `Oc1cc(O)cc(/C=C/c2ccccc2)c1` [Pinosylvin], on SGLT1, the remaining activity at 5 µM amounted to 98% and the remaining activity at 50 µM turned out to be 155%. In addition, the CYTOTOXICITY with CHO‐hSGLT1/2 cells is given as -71. Moreover, at hSGLT2, the remaining activity at 5 µM was 97% and the remaining activity at 50 µM was found to be 117%.

Consider `CC1(C)Oc2ccc3ccc(=O)oc3c2[C@@H](O)[C@H]1O[C@@H]1O[C@H](CO)[C@@H](O)[C@H](O)[C@H]1O` [Praeroside II], for which the activity at SGLT1 and at hSGLT2 was 98% throughout. Moreover, the “CYTOTOXICITY (% of vehicle control) Mean” value in the series with CHO‐hSGLT1/2 cells is reported as 10 % of vehicle control. In addition, at hSGLT2 (setting [2]), the “SGLT2/SGLT1 ACTIVITY RATIO 5 uM Mean” value turned out to be 1.0.

In the case of `CC=C(C)C(=O)O[C@H]1c2c(ccc3ccc(=O)oc23)OC(C)(C)[C@H]1OC(=O)C(C)=CC` [Praeruptorin B - INDOFINE], the activity worked out at 91% at SGLT1 and 92% on hSGLT2. Further, in the series on CHO‐hSGLT1/2 cells, the “CYTOTOXICITY (% of vehicle control) Mean” value is -15 % of vehicle control. Further, the “SGLT2/SGLT1 ACTIVITY RATIO 5 uM Mean” value at hSGLT2 (setting [2]) worked out at 1.0.

In the case of `COc1cc(O)c2c(=O)c(-c3ccc(OC4OC(CO)C(O)C(O)C4O)cc3)coc2c1` (centres unmarked) [Prunetin-4-p-galactoside], the results for the activity on SGLT1 and at hSGLT2 were 81% and 100%, respectively. The “CYTOTOXICITY (% of vehicle control) Mean” value with CHO‐hSGLT1/2 cells is -26 % of vehicle control. Moreover, the “SGLT2/SGLT1 ACTIVITY RATIO 5 uM Mean” value on hSGLT2 (setting [2]) is given as 1.2.
